Key:
[1] = tested on: three suspension cancer cell lines; assay: PraediCare Dx FACS BH3 profiling with BH3 mimetic compound applied to permeabilized cells; type: cell-based; details: cell lines primed by NOXA
Text: To further probe MCL-1 dependencies we explored the utility of certain BH3 mimetic compounds to provide an alternative to the NOXA readout to determine MCL-1 dependency in cancer cells. Our approach was to directly apply membrane permeable BH3 mimetic compounds that selectively target MCL1. Doing so would add the advantage of directly observing on target activity of the therapeutic agent.

[2] = tested on: AML blasts from patient peripheral blood or bone marrow; assay: BH3 profiling (mitochondrial profiling): JC-1 mitochondrial depolarization (% priming) of gated AML blasts exposed to BH3 peptides; type: cell-based, human; details: for Median CR (n = 23) / Median CR (n = 13): complete remission patients; for Median NR (n = 29) / Median NR (n = 18): non-responders
Protocol: Rows that are shaded grey are samples that failed the acceptance criteria of BH3 profiling during processing. […] Signal to noise is a measure of the DMSO JC-1 red mean fluorescence intensity (MFI) over the CCCP JC-1 read MFI. The cell counts and percent viability were determined by manual cell counting with trypan blue exclusion. Percent blasts are the percentages of CD45-dim, CD3/CD20 negative, and SSC-low of the permeabilized viable cells. All BH3 profiling was performed on those gated blast cells.
Briefly, frozen, extracted leukocyte samples were rapidly thawed, and cell viability was determined by Trypan Blue exclusion. Cells were washed in FACS buffer (1x PBS with 2% FBS) and immunophenotyped using fluorescently labeled CD45, CD3, and CD20 monoclonal antibodies. Cells were then resuspended in Newmeyer buffer (10 mM Trehalose, 10 mM HEPES, 80 mM KCl, 20 μM EGTA, 20 μM EDTA, 5 mM succinate, pH 7.4) for the perturbation step. The BH3 peptides were diluted in Newmeyer buffer to make working solutions resulting in final concentrations of: BIM (100 μM), BIM (0.1 μM), NOXA (100 μM), Puma (10 μM), HRK (100 μM), BAD (100 μM), and BID (1.0 μM). DMSO and CCCP were used as negative and positive peptide controls. Digitonin and oligomycin were added to individual FACS tubes, followed by the BH3 peptides. Cells were then added to the FACS tubes and incubated for 2 hours and 15 minutes at room temperature, in order for cell permeabilization, delivery of peptides or compounds, and mitochondrial depolarization to occur. After the incubation, JC-1 dye was prepared in Newmeyer buffer and added to directly to the treated cells. An additional tube of cells that was not treated with a peptide or compound was stained with propidium iodide (PI) to ensure that cells were effectively permeabilized by the digitonin. After 45 minutes of incubation with JC-1, cells were analyzed on a three laser BD FACSCanto II. AML Blasts were gated based on four parameters: 1) permeabilization (as determined by PI staining), 2) singlet discrimination based on SSC, 3) CD45 dim and CD3/CD20 negative, and 4) SSC low. The median JC-1 red fluorescence of the gated blast population was then used to calculate % depolarization as compared to DMSO (negative) and CCCP (positive) controls.
For each peptide, the percentage priming was calculated using the following formula that determines the priming based on the DMSO negative control as completely unprimed and the CCCP as a 100% primed reference:
For analysis, all patients not classified as CR were treated as non-responders [Minimal Residual Disease (MRD), Partial Remission (PR), and TF (treatment failure)]. Student's t-tests, Mann-Whitney rank-sum non-parametric tests, multi-variate logistic regression, and ROC curve analyses, between the BH3 peptides (and other tumor characteristics, such as cytogenetics, etc.) and response, were calculated using GraphPad Prism Version 5.04 and MedCalc Version 14.8.1.

[3] = Table 6, median percentage priming, all samples
[4] = Table 8, median percentage priming, bone marrow samples only
[5] = median percentage priming, bone marrow samples only

In the case of `CCN1CCN(C(c2ccc(C(F)(F)F)cc2)c2ccc3cccnc3c2O)CC1` (stereo not drawn) [EU5346], the “mitochondrial response to the compound (priming)” value [1] is reported as “responsive”.
With “NOXA: NOXA BH3 peptide, 100 μM; in some aspects AELPPEFAAQLRKIGDKVYC (SEQ ID NO:1) (listed as Homo sapiens)” the “Median CR (n = 23)” value [2, 3] was 17.2, the “Median NR (n = 29)” value [2, 3] was 20.2 and the “Median CR (n = 13)” value [2, 4] was 44.5. For the same compound, the “Median NR (n = 18)” value [2, 4] was 5.2, the “median depolarization (priming)” value ([2]; all responses, all profiled patient samples) was 16.0% and the “NOXA priming in patients that did not respond” value ([2]; bone marrow samples only) was 5.2%. For the same compound, the “NOXA priming in patients that respond to treatment” value ([2]; bone marrow samples only) was 44.5%, the “Median CR (n = 23)” value ([2]; median percentage priming of blasts, all samples (blood and marrow)) was 17.2 and the “Median NR (n = 29)” value ([2]; median percentage priming of blasts, all samples (blood and marrow), BIM 100/0.1 μM, NOXA 100 μM, Puma 10 μM, HRK 100 μM, BAD 100 μM, BID 1.0 μM) was 20.2. The “Median CR (n = 13)” value [2, 5] was 44.5 and the “Median NR (n = 18)” value [2, 5] was 5.2.
